Biological target: human orexin-2 receptor (Homo sapiens (Human), UniProt O43614)
Test: FLIPR Ca2+ Flux Assay, orexin-2 receptor
Assay type: cell-based
Settings: CHO cells expressing the human orexin-2 receptor; agonist 70 pM Ala-6,12 orexin-A; read-out: hOX2R FLIPR IC50
Procedure: In a typical experiment the OX1 and OX2 receptor antagonistic activity of the compounds of the present invention was determined in accordance with the following experimental method. For intracellular calcium measurements, Chinese hamster ovary (CHO) cells expressing the rat orexin-1 receptor or the human orexin-2 receptor, are grown in Iscove's modified DMEM containing 2 mM L-glutamine, […], 1% hypoxanthine-thymidine supplement, 100 U/ml penicillin, 100 μg/ml streptomycin and 10% heat-inactivated fetal calf serum (FCS). The cells are seeded at 20,000 cells/well into Becton-Dickinson black 384-well clear bottom sterile plates coated with poly-D-lysine. All reagents were from GIBCO-Invitrogen Corp. The seeded plates are incubated overnight at 37° C. and 5% CO2. Ala-6,12 human orexin-A as the agonist is prepared as a 1 mM stock solution in 1% bovine serum albumin (BSA) and diluted in assay buffer (HBSS containing 20 mM HEPES, 0.1% BSA and 2.5 mM probenecid, pH7.4) for use in the assay at a final concentration of 70 pM. Test compounds are prepared as 10 mM stock solution in DMSO, then diluted in 384-well plates, first in DMSO, then assay buffer. On the day of the assay, cells are washed 3 times with 100 μl assay buffer and then incubated for 60 min (37° C., 5% CO2) in 60 μl assay buffer containing 1 μM Fluo-4AM ester, 0.02% pluronic acid, and 1% BSA. The dye loading solution is then aspirated and cells are washed 3 times with 100 μl assay buffer. 30 μl of that same buffer is left in each well. Within the Fluorescent Imaging Plate Reader (FLIPR, Molecular Devices), test compounds are added to the plate in a volume of 25 μl, incubated for 5 min and finally 25 μl of agonist is added. Fluorescence is measured for each well at 1 second intervals for 5 minutes and the height of each fluorescence peak is compared to the height of the fluorescence peak induced by 70 pM Ala-6,12 orexin-A with buffer in place of antagonist. For each antagonist, IC50 value (the concentration of compound needed to inhibit 50% of the agonist response) is determined. Alternatively, compound potency can be assessed by a radioligand binding assay (described in Bergman et. al. Bioorg. Med. Chem. Lett. 2008, 18, 1425-1430) in which the inhibition constant (Ki) is determined in membranes prepared from CHO cells expressing either the OX1 or OX2 receptor. The intrinsic orexin receptor antagonist activity of a compound which may be used in the present invention may be determined by these assays.

Chain of human orexin-2 receptor (O43614 whole entry): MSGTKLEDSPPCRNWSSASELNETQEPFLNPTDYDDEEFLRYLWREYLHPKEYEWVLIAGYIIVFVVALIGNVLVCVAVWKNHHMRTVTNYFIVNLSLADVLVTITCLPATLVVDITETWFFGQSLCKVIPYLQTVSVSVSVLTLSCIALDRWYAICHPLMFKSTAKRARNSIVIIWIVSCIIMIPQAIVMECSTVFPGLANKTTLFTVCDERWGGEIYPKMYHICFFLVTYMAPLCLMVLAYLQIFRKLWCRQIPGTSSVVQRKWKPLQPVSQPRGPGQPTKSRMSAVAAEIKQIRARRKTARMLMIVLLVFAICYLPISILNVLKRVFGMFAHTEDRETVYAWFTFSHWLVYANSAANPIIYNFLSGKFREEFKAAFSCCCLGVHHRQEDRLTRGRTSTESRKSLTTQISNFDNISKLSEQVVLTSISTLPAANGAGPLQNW

With `CCN(CCN(C)c1cc(C#N)ccn1)C(=O)c1ccccc1-n1cnnn1` [Example F-25, N-{2-[(4-cyanopyridin-2-yl)(methyl)amino]ethyl}-N-ethyl-2-(1H-tetrazol-1-yl)benzamide] as the molecule, how does the IC50 read?
The IC50 was 4390 nM.

How did the IC50 turn out when `CCN(CCN(C)c1cc(C#N)ccn1)C(=O)c1c(F)cccc1-n1nccn1` [Example F-15, N-{2-[(4-cyanopyridin-2-yl)(methyl)amino]ethyl}-N-ethyl-2-fluoro-6-(2H-1,2,3-triazol-2-yl)benzamide] was run?
The IC50 was 33.9 nM.

How did the IC50 turn out when `CCN(CCN(CC)c1nc(C)cc(C)n1)C(=O)c1ccccc1-n1nccn1` [Example C-1, N-(2-((4,6-dimethylpyrimidin-2-yl)(ethyl)amino)ethyl)-N-ethyl-2-(2H-H-1,2,3-triazol-2-yl)benzamide] was run?
Its IC50 is 36.6 nM.

Which IC50 does the source give for `CCN(CCN(C)c1cc(C#N)ccn1)C(=O)c1c(F)cccc1-n1ccnn1` [Example F-17, N-{2-[(4-cyanopyridin-2-yl)(methyl)amino]ethyl}-N-ethyl-2-fluoro-6-(1H-1,2,3-triazol-1-yl)benzamide] here?
The IC50 was 945 nM.

How did the IC50 turn out when `CCN(CCN(C)c1cc(C#N)ccn1)C(=O)c1ccccc1C1(C#N)CC1` [Example F-26, 2-(1-cyanocyclopropyl)-N-{2-[(4-cyanopyridin-2-yl)(methyl)amino]ethyl}-N-ethylbenzamide] was run?
The IC50 was 18.9 nM.

Which IC50 does the source give for `CCN(CCN(C)c1nccc(C(C)(C)O)n1)C(=O)c1ccccc1OCC(F)F` [Example H-22, 2-(2,2-difluoroethoxy)-N-ethyl-N-(2-((4-(2-hydroxypropan-2-yl)pyrimidin-2-yl)(methyl)amino)ethyl) benzamide] here?
Its IC50 is 17.7 nM.

For `CCN(CCN(C)c1cccc(C(C)(C)O)n1)C(=O)c1ncccc1-c1ccccc1` [Example I-22, N-ethyl-N-(2-((6-(2-hydroxypropan-2-yl)pyridin-2-yl)(methyl)amino)ethyl)-3-phenylpicolinamide], which IC50 is on record?
The IC50 was 211 nM.

For `CCN(CCN(C)c1cc(C#N)ccn1)C(=O)c1ccc(OCC(F)(F)F)nc1` [Example F-31, N-{2-[(4-cyanopyridin-2-yl)(methyl)amino]ethyl}-N-ethyl-6-(2,2,2-trifluoroethoxy)pyridine-3-carboxamide], which IC50 is on record?
The IC50 was 10000 nM.

Which IC50 does the source give for `CCN(CCN(C)c1cccc(C(C)(C)O)n1)C(=O)c1ccccc1OC(F)F` [Example I-14, 2-(difluoromethoxy)-N-ethyl-N-(2-((6-(2-hydroxypropan-2-yl)pyridin-2-yl)(methyl)amino)ethyl)benz-amide] here?
The IC50 was 201 nM.

For `CCN(CCN(C)c1nc(C)cc(C)n1)C(=O)c1cccnc1CC(F)(F)F` [Example B-21, N-{2-[(4,6-dimethylpyrimidin-2-yl)(methyl)amino]ethyl}-N-ethyl-2-(2,2,2-trifluoroethyl)pyridine-3-carboxamide], which IC50 is on record?
Its IC50 is 424 nM.

`CCCN(CCN(C)c1cc(C#N)ccn1)C(=O)c1ccccc1-n1nccn1` [Example G-4, N-(2-((4-cyanopyridin-2-yl)(methyl)amino)ethyl)-N-propyl-2-(2H-1,2,3-triazol-2-yl)benzamide] was tested. Which IC50 did it give?
Its IC50 is 12.1 nM.

How did the IC50 turn out when `CCN(CCN(C)c1nccc(C(C)(C)O)n1)C(=O)c1ccccc1CC(F)F` [Example H-24, 2-(2,2-difluoroethyl)-N-ethyl-N-(2-((4-(2-hydroxypropan-2-yl)pyrimidin-2-yl)(methyl)amino)ethyl) benzamide] was run?
Its IC50 is 20.6 nM.

`CCN(CCN(C)c1cccc(C(C)(C)O)n1)C(=O)c1cccnc1CC(F)(F)F` [Example I-19, N-ethyl-N-(2-((6-(2-hydroxypropan-2-yl)pyridin-2-yl)(methyl)amino)ethyl)-2-(2,2,2-trifluoroethyl)nicotinamide] was tested. Which IC50 did it give?
The IC50 was 2270 nM.

With `CCN(CCN(C)c1nccc(C(C)(C)O)n1)C(=O)c1cccnc1OC(C)C` [Example H-14, N-ethyl-N-(2-((4-(2-hydroxypropan-2-yl)pyrimidin-2-yl)(methyl)amino)ethyl)-2-isopropoxynicotinamide] as the molecule, how does the IC50 read?
The IC50 was 65.4 nM.

With `CCOc1ncccc1C(=O)N(CC)CCN(C)c1nccc(C(C)(C)O)n1` [Example H-15, 2-ethoxy-N-ethyl-N-(2-((4-(2-hydroxypropan-2-yl)pyrimidin-2-yl)(methyl)amino)ethyl) nicotinamide] as the molecule, how does the IC50 read?
Its IC50 is 77.3 nM.

With `CCOc1ccccc1C(=O)N(CC)CCN(C)c1nc(C)cc(C)n1` [Example B-13, N-(2-((4,6-dimethylpyrimidin-2-yl)(methyl)amino)ethyl)-2-ethoxy-N-ethylbenzamide] as the molecule, how does the IC50 read?
The IC50 was 16 nM.

`CN(CCN(CC1CC1)C(=O)c1ccccc1-n1nccn1)c1cc(C#N)ccn1` [Example G-7, N-(2-((4-cyanopyridin-2-yl)(methyl)amino)ethyl)-N-(cycloproplmethyl)-2-(2H-1,2,3-triazol-2-yl)benzamide] was tested. Which IC50 did it give?
Its IC50 is 35.8 nM.

How did the IC50 turn out when `CN(CCN(C)c1cc(C#N)ccn1)C(=O)c1ccccc1-n1nccn1` [Example G-1, N-(2-((4-cyanopyridin-2-yl)(methyl)amino)ethyl)-N-methyl-2-(2H-1,2,3-triazol-2-yl)benzamide] was run?
The IC50 was 88 nM.

For `CCN(CCN(C)c1cc(C#N)ccn1)C(=O)c1ccccc1C1(C#N)CCOCC1` [Example F-10, N-{2-[(4-cyanopyridin-2-yl)(methyl)amino]ethyl}-2-(4-cyanotetrahydro-2H-pyran-4-yl)-N-ethylbenzamide], which IC50 is on record?
Its IC50 is 7200 nM.

With `CCN(CCN(C)c1nc(C)cc(C)n1)C(=O)c1ncccc1-n1nccn1` [Example B-22, N-{2-[(4,6-dimethylpyrimidin-2-yl)(methyl)amino]ethyl}-N-ethyl-3-(2H-1,2,3-triazol-2-yl)pyridine-2-carboxamide] as the molecule, how does the IC50 read?
The IC50 was 32.4 nM.

For `CCN(CCN(C)c1nc(C)cc(C)n1)C(=O)c1ccccc1C1CCC1` [Example B-26, 2-cyclobutyl-N-{2-[(4,6-dimethylpyrimidin-2-yl)(methyl)amino]ethyl}-N-ethylbenzamide], which IC50 is on record?
The IC50 was 20.4 nM.

Which IC50 does the source give for `CCN(CCN(C)c1nccc(C(C)(C)O)n1)C(=O)c1ccc(OC)nc1C1CC1` [Example H-28, 2-cyclopropyl-N-ethyl-N-(2-((4-(2-hydroxypropan-2-yl)pyrimidin-2-yl)(methyl)amino)ethyl)-6-methoxynicotinamide] here?
Its IC50 is 20 nM.

For `CCN(CCN(C)c1nc(C)cc(C)n1)C(=O)c1ncccc1-c1ccccc1` [Example B-27, N-{2-[(4,6-dimethylpyrimidin-2-yl)(methyl)amino]ethyl}-N-ethyl-3-phenylpyridine-2-carboxamide], which IC50 is on record?
Its IC50 is 12.5 nM.

How did the IC50 turn out when `CCCc1ccccc1C(=O)N(CC)CCN(C)c1nccc(C(C)(C)O)n1` [Example H-19, N-ethyl-N-(2-((4-(2-hydroxypropan-2-yl)pyrimidin-2-yl)(methyl)amino)ethyl)-2-propylbenzamide] was run?
The IC50 was 13.1 nM.

Which IC50 does the source give for `CCN(CCN(C)c1cccc(C(C)(C)O)n1)C(=O)c1cccnc1OC(C)C` [Example I-21, N-ethyl-N-(2-((6-(2-hydroxypropan-2-yl)pyridin-2-yl)(methyl)amino)ethyl)-2-isopropoxynicotinamide] here?
Its IC50 is 387 nM.

How did the IC50 turn out when `CCN(CCN(C)c1cccc(C(C)(C)O)n1)C(=O)c1nccnc1-n1cccn1` [Example I-11, N-ethyl-N-(2-((6-(2-hydroxypropan-2-yl)pyridin-2-yl)(methyl)amino)ethyl)-3-(1H-pyrazol-1-yl)pyrazine-2-carboxamide] was run?
Its IC50 is 328 nM.

With `CCN(CCN(C)c1cc(C#N)ccn1)C(=O)c1ccccc1N1CCCC1` [Example F-22, N-{2-[(4-cyanopyridin-2-yl)(methyl)amino]ethyl}-N-ethyl-2-pyrrolidin-1-ylbenzamide] as the molecule, how does the IC50 read?
Its IC50 is 31.8 nM.

For `CCN(CCN(C)c1cc(C#N)ccn1)C(=O)c1cc(C)ccc1-n1nccn1` [Example F-20, N-{2-[(4-cyanopyridin-2-yl)(methyl)amino]ethyl}-N-ethyl-5-methyl-2-(2H-1,2,3-triazol-2-yl)benzamide], which IC50 is on record?
The IC50 was 16.2 nM.

For `CCN(CCN(C)c1cccc(C(C)(C)O)n1)C(=O)c1ccccc1C1CC1(F)F` (centres unmarked) [Example I-20, 2-(2,2-difluorocyclopropyl)-N-ethyl-N-(2-((6-(2-hydroxypropan-2-yl)pyridin-2-yl)(methyl)amino)ethyl)benz-amide], which IC50 is on record?
Its IC50 is 36.4 nM.

How did the IC50 turn out when `CCCc1ccccc1C(=O)N(CC)CCN(C)c1nc(C)cc(C)n1` [Example B-16, N-{2-[(4,6-dimethylpyrimidin-2-yl)(methyl)amino]ethyl}-N-ethyl-2-propylbenzamide] was run?
The IC50 was 19.9 nM.

Which IC50 does the source give for `CCN(CCN(C)c1cccc(C(C)(C)O)n1)C(=O)c1cccnc1-n1cccn1` [Example I-24, N-ethyl-N-(2-((6-(2-hydroxypropan-2-yl)pyridin-2-yl)(methyl)amino)ethyl)-2-(1H-pyrazol-1-yl)nicotinamide] here?
Its IC50 is 104 nM.

With `CCN(CCN(C)c1nccc(C(C)(C)O)n1)C(=O)c1cccnc1OCC(F)(F)F` [Example H-17] as the molecule, how does the IC50 read?
The IC50 was 21.7 nM.

From patent US10011595B2 (Merck Sharp & Dohme Corp., priority 2014, dated 2018)
